Assay results from US20230085307A1, “PYRIDAZINONE COMPOUND AND HERBICIDE” (NISSAN CHEMICAL CORPORATION, priority 2019, published 2023).

What was measured:
oval-leafed pondweed = test: Test Example 1: herbicidal activity, application before weed generation under submerged conditions (Table 16, symbol C); type: in vivo, oval-leafed pondweed (Monochoria vaginalis); settings: 320 g/ha applied herbicide
Procedure, shortened: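 Submerged Wagner pots (alluvial soil, 4 cm water) sown with weed seeds and planted with 2.5-leaf rice seedlings; emulsifiable concentrate diluted in water applied to water surface on sowing day. Held in greenhouse at 25-30 °C; injury scored 0-5 by herbicidal rate after three weeks.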

Japanese bulrush = test: Test Example 2: herbicidal activity, application during weed generation under submerged conditions (Table 17, symbol B); type: in vivo, Japanese bulrush (Schoenoplectus juncoides); settings: AAH 320 g/ha; application during weed generation, submerged conditions
Procedure, shortened: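 Wagner pot, alluvial soil, 4 cm flood; mixed sowing of all species; greenhouse 25° C.–30° C. Emulsifiable formulation, water-diluted to predetermined dose, applied to paddy water at 1–2 leaf stage. Effect rated at 3 wk using the earlier test's scoring criteria.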

southern crabgrass [1] = test: Test Example 4: herbicidal effect by soil treatment (Table 19, symbol F); type: in vivo, southern crabgrass (Digitaria ciliaris)
Procedure, shortened: (§1)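 Applied as a water-diluted emulsion, the compound was sprayed onto soil covering newly sown seeds. Evaluation came three weeks after application, in a greenhouse held at 25° C. to 30° C.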

green foxtail = test: Test Example 4: herbicidal effect by soil treatment (Table 19, symbol G); type: in vivo, green foxtail (Setaria viridis)
Procedure, shortened: as §1

barnyard grass = test: Test Example 4: herbicidal effect by soil treatment (Table 19, symbol H); type: in vivo, barnyard grass (Echinochloa crus-galli)
Procedure, shortened: as §1

wild oat = test: Test Example 4: herbicidal effect by soil treatment (Table 19, symbol I); type: in vivo, wild oat (Avena fatua)
Procedure, shortened: as §1

blackgrass = test: Test Example 4: herbicidal effect by soil treatment (Table 19, symbol J); type: in vivo, blackgrass (Alopecurus myosuroides)
Procedure, shortened: as §1

velvetleaf [2] = test: Test Example 4: herbicidal effect by soil treatment (Table 19, symbol M); type: in vivo, velvetleaf (Abutilon theophrasti)
Procedure, shortened: as §1

lambsquarters [3] = test: Test Example 4: herbicidal effect by soil treatment (Table 19, symbol O); type: in vivo, lambsquarters (Chenopodium album); settings: amount of applied herbicide 320 g/ha
Procedure, shortened: as §1

chickweed [4] = test: Test Example 4: herbicidal effect by soil treatment (Table 19, symbol P); type: in vivo, common chickweed (Stellaria media)
Procedure, shortened: as §1

persian speedwell [5] = test: Test Example 4: herbicidal effect by soil treatment (Table 19, symbol R); type: in vivo, Persian speedwell (Veronica persica)
Procedure, shortened: as §1

southern crabgrass [6] = test: Test Example 5: herbicidal effect by foliage application, plastic box (Table 20, symbol F); type: in vivo, southern crabgrass (Digitaria ciliaris); settings: foliage application, 320 g/ha; for herbicidal effect grade, F: southern crabgrass: three weeks after application
Procedure, shortened: (§2)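 Sow seeds spot-wise in sterilized diluvial soil; cover with ~1.5 cm soil. Grow 14 days in greenhouse, 25° C. to 30° C. Spray foliage with emulsion diluted to predetermined amount. Rate effect after 3 weeks.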

windgrass = test: Test Example 5: herbicidal effect by foliage application, plastic box (Table 20, symbol L); type: in vivo, windgrass (Apera spica-venti); settings: foliage application, 320 g/ha; for herbicidal effect grade, L: windgrass: three weeks after application
Procedure, shortened: as §2

velvetleaf [7] = test: Test Example 5: herbicidal effect by foliage application, plastic box (Table 20, symbol M); type: in vivo, velvetleaf (Abutilon theophrasti); settings: foliage application, 320 g/ha; for herbicidal effect grade, M: velvetleaf: three weeks after application
Procedure, shortened: as §2

lambsquarters [8] = test: Test Example 5: herbicidal effect by foliage application, plastic box (Table 20, symbol O); type: in vivo, lambsquarters (Chenopodium album); settings: foliage application, 320 g/ha; for herbicidal effect grade, O: lambsquarters: three weeks after application
Procedure, shortened: as §2

chickweed [9] = test: Test Example 5: herbicidal effect by foliage application, plastic box (Table 20, symbol P); type: in vivo, common chickweed (Stellaria media); settings: foliage application, 320 g/ha; for herbicidal effect grade, P: chickweed: three weeks after application
Procedure, shortened: as §2

persian speedwell [10] = test: Test Example 5: herbicidal effect by foliage application, plastic box (Table 20, symbol R); type: in vivo, Persian speedwell (Veronica persica); settings: foliage application, 320 g/ha; for herbicidal effect grade, R: persian speedwell: three weeks after application
Procedure, shortened: as §2

[11] = amount of applied herbicide 320 g/ha
[12] = evaluated three weeks after application

Row | Compound | Herbicidal effect on C: oval-leafed pondweed (grade 0-5) (oval-leafed pondweed) | herbicidal effect rating, B: Japanese bulrush (Japanese bulrush) | herbicidal effect rating, F: southern crabgrass (southern crabgrass [1]; [11]) | herbicidal effect rating, G: green foxtail (green foxtail; [11]) | herbicidal effect rating, H: barnyard grass (barnyard grass; [11]) | herbicidal effect rating, I: wild oat (wild oat; [11]) | herbicidal effect rating, J: blackgrass (blackgrass; [11]) | herbicidal effect rating, M: velvetleaf (velvetleaf [2]; [11]) | herbicidal effect rating, O: lambsquarters (lambsquarters [3]) | herbicidal effect rating, P: chickweed (chickweed [4]; [11]) | herbicidal effect rating, R: persian speedwell (persian speedwell [5]; [11]) | herbicidal effect grade, F: southern crabgrass (southern crabgrass [6]) | herbicidal effect grade, L: windgrass (windgrass) | herbicidal effect grade, M: velvetleaf (velvetleaf [7]) | herbicidal effect grade, O: lambsquarters (lambsquarters [8]) | herbicidal effect grade, P: chickweed (chickweed [9]) | herbicidal effect grade, R: persian speedwell (persian speedwell [10]) | also measured
1 | CCCOc1ccc(-c2sc3ccccc3c2-c2c(O)c(C)nn(C)c2=O)cc1 [1-019] | 4 (Herbicidal rate of 70% or more and less than 90%) | 4 (Herbicidal rate of 70% or more and less than 90%) | 0 (Herbicidal rate of 5% or less (almost no effect)) | 2 (Herbicidal rate of 20% or more and less than 40%) | 3 (Herbicidal rate of 40% or more and less than 70%) | 0 (Herbicidal rate of 5% or less (almost no effect)) | 0 (Herbicidal rate of 5% or less (almost no effect)) | 0 (Herbicidal rate of 5% or less (almost no effect)) | 4 (Herbicidal rate of 70% or more and less than 90%) | 5 (Herbicidal rate of 90% or more (almost completely withered)) | 5 (Herbicidal rate of 90% or more (almost completely withered)) | 4 (Herbicidal rate of 70% or more and less than 90%) | 5 (Herbicidal rate of 90% or more (almost completely withered)) | 5 (Herbicidal rate of 90% or more (almost completely withered)) | 5 (Herbicidal rate of 90% or more (almost completely withered)) | 5 (Herbicidal rate of 90% or more (almost completely withered)) | 5 (Herbicidal rate of 90% or more (almost completely withered)) | –
2 | Cc1nn(C)c(=O)c(-c2c(-c3ccc(OC(C)C)cc3)sc3ccccc23)c1O [1-020] | 4 (Herbicidal rate of 70% or more and less than 90%) | 3 (Herbicidal rate of 40% or more and less than 70%) | 0 (Herbicidal rate of 5% or less (almost no effect)) | 5 (Herbicidal rate of 90% or more (almost completely withered)) | 5 (Herbicidal rate of 90% or more (almost completely withered)) | 0 (Herbicidal rate of 5% or less (almost no effect)) | 1 (Herbicidal rate of 5% or more and less than 20%) | 0 (Herbicidal rate of 5% or less (almost no effect)) | 4 (Herbicidal rate of 70% or more and less than 90%) | 3 (Herbicidal rate of 40% or more and less than 70%) | 5 (Herbicidal rate of 90% or more (almost completely withered)) | 3 (Herbicidal rate of 40% or more and less than 70%) | 5 (Herbicidal rate of 90% or more (almost completely withered)) | 3 (Herbicidal rate of 40% or more and less than 70%) | 2 (Herbicidal rate of 20% or more and less than 40%) | 5 (Herbicidal rate of 90% or more (almost completely withered)) | 5 (Herbicidal rate of 90% or more (almost completely withered)) | –
3 | CCCCOc1ccc(-c2sc3ccccc3c2-c2c(OC(=O)CCC)c(C)nn(C)c2=O)cc1 [1-025] | 4 (Herbicidal rate of 70% or more and less than 90%) | 3 (Herbicidal rate of 40% or more and less than 70%) | 0 (Herbicidal rate of 5% or less (almost no effect)) | – | 0 (Herbicidal rate of 5% or less (almost no effect)) | 0 (Herbicidal rate of 5% or less (almost no effect)) | 0 (Herbicidal rate of 5% or less (almost no effect)) | 0 (Herbicidal rate of 5% or less (almost no effect)) | 2 (Herbicidal rate of 20% or more and less than 40%) | – | 3 (Herbicidal rate of 40% or more and less than 70%) | 3 (Herbicidal rate of 40% or more and less than 70%) | 0 (Herbicidal rate of 5% or less (almost no effect)) | 5 (Herbicidal rate of 90% or more (almost completely withered)) | 4 (Herbicidal rate of 70% or more and less than 90%) | 5 (Herbicidal rate of 90% or more (almost completely withered)) | 5 (Herbicidal rate of 90% or more (almost completely withered)) | –
4 | C#CCOc1ccc(-c2sc3ccc(F)cc3c2-c2c(OCOCCOC)c(C)nn(C)c2=O)cc1 [2-055] | 1 (Herbicidal rate of 5% or more and less than 20%) | 3 (Herbicidal rate of 40% or more and less than 70%) | – | – | – | – | – | – | – | – | – | – | – | – | – | – | – | herbicidal effect rating, F: southern crabgrass (southern crabgrass [1]; 320 g/ha): 1 (Herbicidal rate of 5% or more and less than 20%); herbicidal effect rating, G: green foxtail (green foxtail; 320 g/ha): 4 (Herbicidal rate of 70% or more and less than 90%); herbicidal effect rating, H: barnyard grass (barnyard grass; 320 g/ha): 3 (Herbicidal rate of 40% or more and less than 70%); herbicidal effect rating, I: wild oat (wild oat; 320 g/ha): 0 (Herbicidal rate of 5% or less (almost no effect)); herbicidal effect rating, J: blackgrass (blackgrass; 320 g/ha): 0 (Herbicidal rate of 5% or less (almost no effect)); herbicidal effect rating, M: velvetleaf (velvetleaf [2]; 320 g/ha): 3 (Herbicidal rate of 40% or more and less than 70%); herbicidal effect rating, P: chickweed (chickweed [4]; 320 g/ha): 3 (Herbicidal rate of 40% or more and less than 70%); herbicidal effect rating, R: persian speedwell (persian speedwell [5]; 320 g/ha): 5 (Herbicidal rate of 90% or more (almost completely withered)); herbicidal effect on F: southern crabgrass (southern crabgrass [6]; [12]): 1 (Herbicidal rate of 5% or more and less than 20%); herbicidal effect on L: windgrass (windgrass; [12]): 0 (Herbicidal rate of 5% or less (almost no effect)); herbicidal effect on M: velvetleaf (velvetleaf [7]; [12]): 5 (Herbicidal rate of 90% or more (almost completely withered)); herbicidal effect on O: lambsquarters (lambsquarters [8]; [12]): 5 (Herbicidal rate of 90% or more (almost completely withered)); herbicidal effect on P: chickweed (chickweed [9]; [12]): 5 (Herbicidal rate of 90% or more (almost completely withered)); herbicidal effect on R: persian speedwell (persian speedwell [10]; [12]): 5 (Herbicidal rate of 90% or more (almost completely withered))
5 | Cc1nn(C)c(=O)c(-c2c(-c3cccc(OC(C)C)c3)sc3ccc(F)cc23)c1O [2-215] | 0 (Herbicidal rate of 5% or less (almost no effect)) | 0 (Herbicidal rate of 5% or less (almost no effect)) | – | – | – | – | – | – | – | – | – | – | – | – | – | – | – | F: southern crabgrass, herbicidal effect rating (southern crabgrass [1]; [11]): 5 (Herbicidal rate of 90% or more (almost completely withered)); G: green foxtail, herbicidal effect rating (green foxtail; [11]): 5 (Herbicidal rate of 90% or more (almost completely withered)); H: barnyard grass, herbicidal effect rating (barnyard grass; [11]): 5 (Herbicidal rate of 90% or more (almost completely withered)); I: wild oat, herbicidal effect rating (wild oat; [11]): 0 (Herbicidal rate of 5% or less (almost no effect)); J: blackgrass, herbicidal effect rating (blackgrass; [11]): 1 (Herbicidal rate of 5% or more and less than 20%); M: velvetleaf, herbicidal effect rating (velvetleaf [2]; [11]): 2 (Herbicidal rate of 20% or more and less than 40%); O: lambsquarters, herbicidal effect rating (lambsquarters [3]): 3 (Herbicidal rate of 40% or more and less than 70%); R: persian speedwell, herbicidal effect rating (persian speedwell [5]; [11]): 4 (Herbicidal rate of 70% or more and less than 90%); herbicidal effect on F: southern crabgrass (criteria 0-5) (southern crabgrass [6]; [12]): 5 (Herbicidal rate of 90% or more (almost completely withered)); herbicidal effect on L: windgrass (criteria 0-5) (windgrass; [12]): 3 (Herbicidal rate of 40% or more and less than 70%); herbicidal effect on M: velvetleaf (criteria 0-5) (velvetleaf [7]; [12]): 3 (Herbicidal rate of 40% or more and less than 70%); herbicidal effect on O: lambsquarters (criteria 0-5) (lambsquarters [8]; [12]): 3 (Herbicidal rate of 40% or more and less than 70%); herbicidal effect on P: chickweed (criteria 0-5) (chickweed [9]; [12]): 5 (Herbicidal rate of 90% or more (almost completely withered)); herbicidal effect on R: persian speedwell (criteria 0-5) (persian speedwell [10]; [12]): 5 (Herbicidal rate of 90% or more (almost completely withered))
